Reference: patent publication US9221809B2 (MERCK SHARP & DOHME CORP., priority 2011, dated 2015)

The molecules below were run against IRAK4 (Homo sapiens (Human), UniProt Q9NWZ3) (assay: IRAK4 kinase activity, IMAP fluorescence polarization assay). Conditions: 100 μM ATP; read-out: IRAK4 IC50.
Assay type: biochemical
Outline: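 Fluorescence polarization (IMAP nanoparticle binding of phosphopeptide) reports activity after a 30 min, 25 °C reaction. Conditions: 100 μM ATP, 0.5 nM GST-IRAK4, 100 nM fluorescent peptide, 10 mM Tris pH 7.2, 1 mM MgCl2, 1 mM DTT, 0.01% Tween 20.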

Sequence of IRAK4 (Q9NWZ3 whole entry): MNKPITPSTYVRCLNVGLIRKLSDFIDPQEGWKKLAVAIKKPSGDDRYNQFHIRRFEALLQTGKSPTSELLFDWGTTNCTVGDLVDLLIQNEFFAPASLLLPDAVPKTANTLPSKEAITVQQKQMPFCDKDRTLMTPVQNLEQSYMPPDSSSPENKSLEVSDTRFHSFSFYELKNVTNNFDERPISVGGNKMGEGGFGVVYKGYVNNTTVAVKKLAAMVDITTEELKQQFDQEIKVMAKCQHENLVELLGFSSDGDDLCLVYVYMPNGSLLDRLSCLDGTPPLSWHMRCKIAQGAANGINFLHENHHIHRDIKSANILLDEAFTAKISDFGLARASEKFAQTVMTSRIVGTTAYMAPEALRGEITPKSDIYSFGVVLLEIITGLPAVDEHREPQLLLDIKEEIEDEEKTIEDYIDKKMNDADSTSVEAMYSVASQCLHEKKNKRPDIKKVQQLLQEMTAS

IC50	Compound
0.02 µM	O=c1[nH]c(N2CCN(c3nncs3)CC2)nc(N[C@@H]2CCCNC2)c1-c1nc2ccccc2s1 [Example 163, (R)-2-(4-(1,3,4-thiadiazol-2-yl)piperazin-1-yl)-5-(benzo[d]thiazol-2-yl)-6-(piperidin-3-ylamino)pyrimidin-4(3H)-one]
0.062 µM	CN(C)[C@@H]1CCN(c2nc(N[C@@H]3CCCNC3)c(-c3ccc4ccccc4n3)c(=O)[nH]2)C1 [Example 164, 2-((R)-3-(dimethylamino)pyrrolidin-1-yl)-6-((R)-piperidin-3-ylamino)-5-(quinolin-2-yl)pyrimidin-4(3H)-one]
0.054 µM	CC(=O)NC1CCN(c2nc(N[C@@H]3CCCNC3)c(-c3ccc4ccccc4n3)c(=O)[nH]2)C1 (stereo partly drawn) [Example 165, N-(1-(6-oxo-4-((R)-piperidin-3-ylamino)-5-(quinolin-2-yl)-1,6-dihydropyrimidin-2-yl)pyrrolidin-3-yl)acetamide]
0.158 µM	CN(C)[C@H]1CCN(c2nc(N[C@@H]3CCCNC3)c(-c3ccc4ccccc4n3)c(=O)[nH]2)C1 [Example 166, 2-((S)-3-(dimethylamino)pyrrolidin-1-yl)-6-((R)-piperidin-3-ylamino)-5-(quinolin-2-yl)pyrimidin-4(3H)-one]
0.02 µM	O=c1[nH]c(N2CCC(O)C2)nc(N[C@@H]2CCCNC2)c1-c1ccc2ccccc2n1 (stereo partly drawn) [Example 167, 2-(3-hydroxypyrrolidin-1-yl)-6-((R)-piperidin-3-ylamino)-5-(quinolin-2-yl)pyrimidin-4(3H)-one]
0.034 µM	O=c1[nH]c(N2CC3CC3C2)nc(N[C@@H]2CCCNC2)c1-c1ccc2ccccc2n1 (stereo partly drawn) [Example 168, 2-(3-azabicyclo[3.1.0]hexan-3-yl)-6-((R)-piperidin-3-ylamino)-5-(quinolin-2-yl)pyrimidin-4(3H)-one]
0.032 µM	CS(=O)(=O)C1CN(c2nc(N[C@@H]3CCCNC3)c(-c3ccc4ccccc4n3)c(=O)[nH]2)C1 [Example 169, (R)-2-(3-(methylsulfonyl)azetidin-1-yl)-6-(piperidin-3-ylamino)-5-(quinolin-2-yl)pyrimidin-4(3H)-one]
0.018 µM	O=c1[nH]c(N2CC(O)(C(F)(F)F)C2)nc(N[C@@H]2CCCNC2)c1-c1ccc2ccccc2n1 [Example 170, (R)-2-(3-hydroxy-3-(trifluoromethyl)azetidin-1-yl)-6-(piperidin-3-ylamino)-5-(quinolin-2-yl)pyrimidin-4(3H)-one]
3.15 µM	CC1(O)CN(c2nc(N[C@@H]3CCCNC3)c(-c3ccc4ccccc4n3)c(=O)[nH]2)C1 [Example 171, (R)-2-(3-hydroxy-3-methylazetidin-1-yl)-6-(piperidin-3-ylamino)-5-(quinolin-2-yl)pyrimidin-4(3H)-one]
0.042 µM	CC(C)(O)C1CN(c2nc(N[C@@H]3CCCNC3)c(-c3ccc4ccccc4n3)c(=O)[nH]2)C1 [Example 172, (R)-2-(3-(2-hydroxypropan-2-yl)azetidin-1-yl)-6-(piperidin-3-ylamino)-5-(quinolin-2-yl)pyrimidin-4(3H)-one]
0.04 µM	CO[C@H]1CN(c2nc(N[C@@H]3CCCNC3)c(-c3ccc4ccccc4n3)c(=O)[nH]2)C[C@@H]1O [Example 173, 2-((3S,4S)-3-hydroxy-4-methoxypyrrolidin-1-yl)-6-((R)-piperidin-3-ylamino)-5-(quinolin-2-yl)pyrimidin-4(3H)-one]
0.139 µM	O=c1[nH]c(N2CC3CC2CS(=O)(=O)C3)nc(N[C@@H]2CCCNC2)c1-c1ccc2ccccc2n1 (stereo partly drawn) [Example 174, 2-(3,3-dioxido-3-thia-6-azabicyclo[3.2.1]octan-6-yl)-6-((R)-piperidin-3-ylamino)-5-(quinolin-2-yl)pyrimidin-4(3H)-one]
0.017 µM	O=c1[nH]c(N2C[C@H](F)[C@@H](F)C2)nc(N[C@@H]2CCCNC2)c1-c1ccc2ccccc2n1 [Example 175, 2-((3S,4S)-3,4-difluoropyrrolidin-1-yl)-6-((R)-piperidin-3-ylamino)-5-(quinolin-2-yl)pyrimidin-4(3H)-one]
